Drawing on ChEMBL document CHEMBL1149896, “Abietane diterpenoids from Clerodendrum bungei” (J Nat Prod, 2008), this text covers IC50 and Activity for eight molecules.

The subject of one test is B16. Nature of the test: Cytotoxicity against mouse B16 cells after 48 hrs by MTT assay. The note with it: B16, 48 h. It counts as functional, cell-based. A general note: Tetrazolium assays rely on reduction of a dye to a coloured formazan, in cell work by metabolically active cells.
The test system of the next test is HGC-27. Nature of the test: Cytotoxicity against human HGC27 cells after 48 hrs by MTT assay. It counts as functional, cell-based. The conditions noted are these: HGC-27, 48 h.
Test [1] deals with HEK293. Nature of the test: Cytotoxicity against HEK293 cells after 48 hrs by MTT assay. The note with it: Homo sapiens, HEK293, 48 h. It counts as cell-based.
Test [2] has as its system HEK293. Nature of the test: Cell cycle arrest in HEK293 cells assessed as accumulation at G1 phase at 2.5 uM after 24 hrs by flow cytometry. It counts as functional, Homo sapiens. A general note: A flow cytometer gives signals particle by particle.
Test [3] deals with HEK293. Nature of the test: Cell cycle arrest in HEK293 cells assessed as accumulation at S phase at 2.5 uM after 24 hrs by flow cytometry. Type of test: functional, Homo sapiens.
Test [4] deals with HEK293. Nature of the test: Cell cycle arrest in HEK293 cells assessed as accumulation at G2/M phase at 2.5 uM after 24 hrs by flow cytometry. Type of test: functional, Homo sapiens.
Test [5] relates to HEK293. Nature of the test: Cell cycle arrest in HEK293 cells assessed as accumulation at G1 phase at 5 uM after 24 hrs by flow cytometry. Type of test: functional, Homo sapiens.
The subject of test [6] is HEK293. Nature of the test: Cell cycle arrest in HEK293 cells assessed as accumulation at S phase at 5 uM after 24 hrs by flow cytometry. It counts as functional, Homo sapiens.
In test [7] the test system is HEK293. Nature of the test: Cell cycle arrest in HEK293 cells assessed as accumulation at G2/M phase at 5 uM after 24 hrs by flow cytometry. Type of test: functional, Homo sapiens.
In test [8] the test system is HEK293. Nature of the test: Cell cycle arrest in HEK293 cells assessed as accumulation at G1 phase at 10 uM after 24 hrs by flow cytometry. Type of test: functional, Homo sapiens.
Test [9] concerns HEK293. Nature of the test: Cell cycle arrest in HEK293 cells assessed as accumulation at S phase at 10 uM after 24 hrs by flow cytometry. Type of test: functional, Homo sapiens.
Test [10] concerns HEK293. Nature of the test: Cell cycle arrest in HEK293 cells assessed as accumulation at G2/M phase at 10 uM after 24 hrs by flow cytometry. Type of test: functional, Homo sapiens.
Test [11] deals with HEK293. Nature of the test: Cell cycle arrest in HEK293 cells assessed as accumulation at G1 phase at 5 nM after 24 hrs by flow cytometry. Type of test: functional, Homo sapiens.
Test [12] relates to HEK293. Nature of the test: Cell cycle arrest in HEK293 cells assessed as accumulation at S phase at 5 nM after 24 hrs by flow cytometry. Type of test: functional, Homo sapiens.
The test system of test [13] is HEK293. Nature of the test: Cell cycle arrest in HEK293 cells assessed as accumulation at G2/M phase at 5 nM after 24 hrs by flow cytometry. It counts as functional, Homo sapiens.
Test [14] deals with HEK293. Nature of the test: Cell cycle arrest in HEK293 cells assessed as accumulation at G1 phase at 0.5 […] after 24 hrs by flow cytometry. Type of test: functional, Homo sapiens.
The test system of test [15] is HEK293. Nature of the test: Cell cycle arrest in HEK293 cells assessed as accumulation at S phase at 0.5 uM after 24 hrs by flow cytometry. It counts as functional, Homo sapiens.
For test [16], the system named is HEK293. Nature of the test: Cell cycle arrest in HEK293 cells assessed as accumulation at G2/M phase at 0.5 uM after 24 hrs by flow cytometry. It counts as functional, Homo sapiens.

`C[C@H](CO)c1cc2c(c(O)c1O[C@@H]1O[C@H](CO)[C@@H](O)[C@H](O)[C@H]1O)[C@@]1(C)CC[C@H](O)C(C)(C)[C@@H]1CC2`: the IC50 in the test on B16, in the test on HGC-27 and with HEK293 [1] was above 10 µM in each case.
With `CC1=C(C(=O)O)[C@@H]2CC(=O)c3cc(CC(C)O)c(O[C@@H]4O[C@H](CO)[C@@H](O)[C@H](O)[C@H]4O)c(O)c3[C@@]2(C)CC1` (some centres undefined), the IC50 in the test with B16, with HGC-27 and in the test on HEK293 [1] was above 10 µM in each case.
As to `CC1=C(CO)C2=CC(=O)c3c(c(O)c4oc(C)cc4c3O)[C@@]2(C)CC1=O`, the IC50 with B16, with HGC-27 and in the test with HEK293 [1] was above 10 µM in each case.
As for `C[C@H](CO)c1cc2c(c(O)c1O[C@@H]1O[C@H](CO)[C@@H](O)[C@H](O)[C@H]1O)[C@@]1(C)CCC[C@](C)(CO[C@@H]3O[C@H](CO)[C@@H](O)[C@H](O)[C@H]3O)[C@@H]1CC2`, the concentration for half-maximal inhibition (IC50) in the test on B16, in the test with HGC-27 and in the test with HEK293 [1] was above 10 µM each time.
Take `CC1=C(C)C2=CC(=O)c3c(O)c4c(c(O)c3[C@@]2(C)CC1)OC(C)C4` (some centres undefined): the IC50 (in general, the concentration at which inhibition is half-maximal) with B16 was 6.4 µM; with HGC-27, 5.3 µM; in the test with HEK293 [1], 1.2 µM. In addition, the Activity in the test on HEK293 [2] is reported as 43.44%; in the test with HEK293 [3], 40.45%; in the test with HEK293 [4], 16.12%; in the test with HEK293 [5], 29.5%; with HEK293 [6], 46.58%; in the test with HEK293 [7], 23.92%. The Activity with HEK293 [8] stood at 22.5%; in the test with HEK293 [9], 42.62%; in the test on HEK293 [10], 34.88%; with HEK293 [11] it was 50.14%; in the test on HEK293 [12], 33.72%; in the test on HEK293 [13], 16.14%. Moreover, the values for the Activity in the test on HEK293 [14], in the test on HEK293 [15] and with HEK293 [16] were 45.43%, 31.01% and 23.57%, respectively.
Take `C[C@H](CO)c1cc2c(c(O)c1O[C@@H]1O[C@H](CO)[C@@H](O)[C@H](O)[C@H]1O)[C@@]1(C)CCC[C@](C)(C(=O)O[C@@H]3O[C@H](CO)[C@@H](O)[C@H](O)[C@H]3O)[C@@H]1CC2`: the IC50 with B16, with HGC-27 and in the test on HEK293 [1] was above 10 µM throughout.
Turning to `C[C@H](CO)c1cc2c(c(O)c1O[C@@H]1O[C@H](CO)[C@@H](O)[C@H](O)[C@H]1O)[C@@]1(C)CC[C@H](O[C@@H]3O[C@H](CO)[C@@H](O)[C@H](O)[C@H]3O)C(C)(C)[C@@H]1CC2`, the IC50 in the test on B16, with HGC-27 and in the test on HEK293 [1] was above 10 µM each time.
Regarding `CC1=C(C)C2=CC(=O)c3c(c(O)c4oc(C)cc4c3O)[C@@]2(C)CC1=O`, the IC50 in the test with B16, in the test with HGC-27 and in the test with HEK293 [1] was above 10 µM each time.
